Drawing on patent publication US9676780B2, “Piperazine-substituted [1,2,4]triazolo[1,5-C]quinazolin-5-amine compounds with A2A antagonist properties” (MERCK SHARP & DOHME CORP., priority 2012, dated 2017), this text covers EC50 for 56 molecules.

The structures appear in SMILES notation.

T1 sequence (P29274 whole entry): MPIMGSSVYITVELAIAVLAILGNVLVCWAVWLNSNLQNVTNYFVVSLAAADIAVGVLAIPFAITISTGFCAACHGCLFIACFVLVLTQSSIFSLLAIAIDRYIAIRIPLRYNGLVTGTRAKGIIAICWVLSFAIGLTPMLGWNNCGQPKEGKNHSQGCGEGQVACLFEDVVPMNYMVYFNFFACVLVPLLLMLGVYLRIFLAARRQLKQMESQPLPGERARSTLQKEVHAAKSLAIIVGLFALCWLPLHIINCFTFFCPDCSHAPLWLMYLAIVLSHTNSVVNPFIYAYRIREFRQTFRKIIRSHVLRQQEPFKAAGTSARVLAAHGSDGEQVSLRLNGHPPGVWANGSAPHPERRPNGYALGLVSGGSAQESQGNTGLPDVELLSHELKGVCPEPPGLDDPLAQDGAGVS

The first assay has as its target T1, human A2a receptor (Homo sapiens, UniProt P29274).
T1 construct: purchased Perkin-Elmer RBHA2AM400UA; host or cells: HEK293
The assay can be described thus: A2a receptor competition binding assay (Scintillation Proximity, tritiated radioligand). To be noted: A2a EC50, membranes from HEK293 cells expressing the human A2a receptor; 0.5 nM tritiated ligand; SPA beads; one hour at room temperature. As to the method: Binding affinities of compounds of the invention for the human A2a receptor were determined in a competition binding assay using Scintillation Proximity technology. […] The beads were then allowed to settle to the bottom of the wells for 1 hr, after which the membrane-associated radioactivity was determined by scintillation counting in a TopCount microplate reader. Ki values were determined using the Cheng-Prusoff equation.
• HEK293 cells expressing the human, rat, dog or monkey adenosine 2a receptor (Purchased from Perkin-Elmer # RBHA2AM400UA). • The Tritiated compound was prepared in-house by MRL Radiochemistry according to published methods. • Wheatgerm agglutinin-coated yttrium silicate SPA beads (GE Healthcare #RPNQ0023). […] This is a 2.5× solution. The final concentration in the assay is 0.5 nM. Calculate the concentration by counting two 5 ul aliquots. Membrane Preparation • Use 0.25 ug of membrane/well. Dilute membranes to 9.7 ug/ml in assay buffer. Treat with 20 ug/ml adenosine deaminase (ADA) for 15 minutes at room temperature to degrade endogenous adenosine. Membrane-Bead Mixture • Use 100 ug/well wheatgerm agglutinin-coated yttrium silicate SPA beads. • Mix ADA-treated membranes and SPA beads together for 30 min prior to assay. […] Incubate for one hour at room temperature with agitation. • Include total binding (assay buffer+1% DMSO) and non-specific binding (CGS15943, 1 uM) wells. Counting • Allow the beads to settle for one hour. • Count in TopCount. Calculations • A curve fitting program (i.e., Prism, Activity Base, Chemcart) is used to determine the EC50.
The Ki value is calculated using the Cheng-Prusoff equation. Ki=EC50/(1+(radioligand concentration/Kd))
In turn, `COc1cccc2c1nc(N)n1nc(CN3C4CCC3C3CCC4N3C(=O)c3ccc(F)cc3)nc21` [Ex-204] showed a concentration giving a half-maximal response (EC50) of 11.5 nM.

Still in this assay, the particulars now being: membranes from HEK293 cells expressing the human A2a receptor; 0.5 nM tritiated ligand; SPA beads; one hour at room temperature; read-out: A2a EC50.
On to `COc1cc(Cl)cc(N2CCN(Cc3nc4c5cccc(OC)c5nc(N)n4n3)C(C)C2)c1` (centres unmarked) [Ex-103], for which the EC50 is 5.56 nM.
The same measure, in the same setting: for `COc1cccc2c1nc(N)n1nc(CN3CCN(c4cc(C(F)(F)F)c(C(F)(F)F)cn4)CC3C)nc21` (centres unmarked) [Ex-139] the value was 81.8 nM; for `COc1cc(F)cc2c1nc(N)n1nc(CN3CCN(c4ccc(F)cn4)CC3C)nc21` (centres unmarked) [Ex-41], 18.1 nM; for `CCC1CN(C(=O)c2ccc(F)cc2)CC(C)N1Cc1nc2c3cccc(OC)c3nc(N)n2n1` (centres unmarked) [Ex-46], 50.2 nM.
For the molecule `COc1cccc2c1nc(N)n1nc(CN3CCN(c4ccc(F)cc4)C[C@H]3C(C)C)nc21` [Ex-44], the half-maximal effective concentration (EC50) came out at 3.6 nM.
As to `CCOC(=O)N1CCN(Cc2nc3c4cccc(OC)c4nc(N)n3n2)C2(CC2)C1` [Ex-188], the EC50 was determined as 12.6 nM.
As for `COc1cccc2c1nc(N)n1nc(CN3CCN(Cc4ncccc4F)CC3C)nc21` (centres unmarked) [Ex-19], the EC50 came out at 29.6 nM.
Still for that read-out and setting: to `COCCOc1ccc(N2CCN(Cc3nc4c5cc(F)cc(F)c5nc(N)n4n3)CC2)cc1` [Ex-162] belongs 74.2 nM; to `COc1cccc2c1nc(N)n1nc(CN3CCN(c4ccc(F)c(Cl)c4)CC3C)nc21` (centres unmarked) [Ex-102], 2.14 nM; to `COc1cccc2c1nc(N)n1nc(CN3CCN(c4ccc(F)cc4)CC3C(F)(F)F)nc21` (centres unmarked) [Ex-177], 12.7 nM.
As to `COc1cccc2c1nc(N)n1nc(CN3CCN(c4cccc5c4cnn5C)CC3C)nc21` (centres unmarked) [Ex-112], the EC50 was 1.6 nM.
Take `COc1cccc2c1nc(N)n1nc(CN3CCN(Cc4ccc(F)c(F)c4F)CC3C)nc21` (centres unmarked) [Ex-29]: the EC50 worked out at 18.6 nM.
On to `Cc1noc2cc(F)c(N3CCN(Cc4nc5c6ccccc6nc(N)n5n4)CC3)cc12` [Ex-160], for which the half-maximal effective concentration (EC50) is 343 nM.
For `COCCOc1ccc(N2CCN(Cc3nc4c5cccc(OC)c5nc(N)n4n3)C3(CC3)C2)cc1` [Ex-189], the EC50 is 3.1 nM.
On to `COc1cccc2c1nc(N)n1nc(CN3CCN(CCC(F)(F)F)CC34CC4)nc21` [Ex-196], for which the EC50 stood at 95.7 nM.
`COc1cccc2c1nc(N)n1nc(CN3CCN(c4cc(F)cc(C(=O)O)c4)CC3C)nc21` (centres unmarked) [Ex-149]: the EC50 is 13.4 nM.
As for `COc1cccc2c1nc(N)n1nc(CN3C(C)CN(c4ccc(F)cn4)CC3C)nc21` (centres unmarked) [Ex-150], the concentration giving a half-maximal response (EC50) was 15 nM.
`COc1cccc2c1nc(N)n1nc(CN3CCN(c4cccc5ccccc45)CC3C)nc21` (centres unmarked) [Ex-71]: the EC50 came to 11.5 nM.
For the molecule `COc1cccc2c1nc(N)n1nc(CN3CCN(c4cc(F)ccn4)CC3C)nc21` (centres unmarked) [Ex-107], the half-maximal effective concentration (EC50) came out at 6.98 nM.
Regarding `COc1ccc(N2CCN(Cc3nc4c5cc(F)cc(OC)c5nc(N)n4n3)CC2(C)C)cc1` [Ex-184], the half-maximal effective concentration (EC50) was found to be 16.4 nM.
With `COc1cccc2c1nc(N)n1nc(CN3CCN(c4ccc(F)cc4)[C@@H](C)C3)nc21` [Ex-181], the half-maximal effective concentration (EC50) was determined as 19.9 nM.
As to `COc1cccc2c1nc(N)n1nc(CN3CCN(c4ccc(C(F)(F)F)cn4)C[C@H]3C)nc21` [Ex-173], the concentration for a half-maximal effect (EC50) was determined as 22.6 nM.
On the same count and under the same terms, for `COc1ccnc(N2CCN(Cc3nc4c5cccc(OC)c5nc(N)n4n3)C(C)C2)c1` (centres unmarked) [Ex-142] the value was 16.5 nM; for `COc1cccc2c1nc(N)n1nc(CN3CCN(c4ccc(F)c(C)n4)CC3C)nc21` (centres unmarked) [Ex-136], 11.4 nM; for `COc1cccc(N2CCN(Cc3nc4c5cc(F)cc(OC)c5nc(N)n4n3)CC2(C)C)c1` [Ex-186], 3.5 nM.
In the case of `COc1cccc2c1nc(N)n1nc(CN3CCN(c4ccc(F)cc4)CC3C(F)F)nc21` (centres unmarked) [Ex-175], the half-maximal effective concentration (EC50) was determined as 5.6 nM.
On to `COc1cccc2c1nc(N)n1nc(CN3CCN(c4ccc(OCC5CC5)cc4)CC3C)nc21` (centres unmarked) [Ex-152], for which the concentration giving a half-maximal response (EC50) came to 2.2 nM.
For `COc1cccc2c1nc(N)n1nc(CCN3CCN(c4ccc(F)cc4)C[C@H]3C)nc21` [Ex-168], the EC50 came to 4.1 nM.
On to `COc1cccc2c1nc(N)n1nc(CN3CCN(Cc4cccc(Cl)c4F)CC3C)nc21` (centres unmarked) [Ex-27], for which the half-maximal effective concentration (EC50) was 6.8 nM.
On the same count and under the same terms, for `COc1cccc2c1nc(N)n1nc(CN3CCN(c4ccc(F)cc4F)CC3C)nc21` (centres unmarked) [Ex-95] the value was 3.1 nM; for `COc1ccc(CN2CCN(Cc3nc4c5cccc(OC)c5nc(N)n4n3)C(C)C2)cc1F` (centres unmarked) [Ex-25], 34.5 nM; for `COc1cccc2c1nc(N)n1nc(CN3CCN(c4ccc(F)cc4)C[C@H]3C3CC3)nc21` [Ex-43], 2.11 nM.
With `COc1cccc2c1nc(N)n1nc(CN3CCN(c4ccccc4C(F)(F)F)CC3C)nc21` (centres unmarked) [Ex-47], the concentration giving a half-maximal response (EC50) is 59.2 nM.
Turning to `COc1cccc2c1nc(N)n1nc(CN3CCN(Cc4cc(F)c(F)cc4F)CC3C)nc21` (centres unmarked) [Ex-30], the half-maximal effective concentration (EC50) worked out at 9.2 nM.
For `COc1cccc2c1nc(N)n1nc(CN3CCN(c4cc(C)ccn4)CC3C)nc21` (centres unmarked) [Ex-98], the concentration for a half-maximal effect (EC50) came to 39.7 nM.
With `COc1cccc2c1nc(N)n1nc(CN3CCN(c4ccc(C)cn4)CC3C)nc21` (centres unmarked) [Ex-138], the half-maximal effective concentration (EC50) is 14.3 nM.
Turning to `COc1cccc2c1nc(N)n1nc(CN3CCN(c4nnc(C)s4)CC3C)nc21` (centres unmarked) [Ex-74], the EC50 stood at 31.8 nM.
Still for that read-out and setting: for `COc1cccc2c1nc(N)n1nc(CN3CCN(c4ccc(F)cc4)CC3CF)nc21` (centres unmarked) [Ex-176] the value was 8.9 nM; for `COc1cccc2c1nc(N)n1nc(CN3CCN(c4nnn[nH]4)CC3C)nc21` (centres unmarked) [Ex-54], 106 nM.
Take `COc1cccc2c1nc(N)n1nc(CN3CCN(c4ccc5nn(C)cc5c4)CC3C)nc21` (centres unmarked) [Ex-131]: the EC50 came to 0.698 nM.
Regarding `COc1cccc2c1nc(N)n1nc(CN3CCN(C(=O)c4ccc(F)cc4)CC3(C)C)nc21` [Ex-202], the EC50 was found to be 29.1 nM.
For the molecule `COc1cccc2c1nc(N)n1nc(CC(=O)N3CCN(c4ccc(F)cc4)C[C@H]3C)nc21` [Ex-154], the EC50 was 2.6 nM.
Regarding `COc1cccc2c1nc(N)n1nc(CN3CCN(Cc4ncco4)CC3C)nc21` (centres unmarked) [Ex-16], the EC50 is 36.5 nM.
In the case of `COc1cccc2c1nc(N)n1nc(CN3CCN(c4cnccn4)CC3C)nc21` (centres unmarked) [Ex-113], the half-maximal effective concentration (EC50) was determined as 27.3 nM.
The same measure, in the same setting: for `COc1cccc2c1nc(N)n1nc(CN3CCN(c4noc(C(F)(F)F)n4)CC3C)nc21` (centres unmarked) [Ex-83] the value was 47.6 nM.
Turning to `COc1cccc2c1nc(N)n1nc(CN3CCN(c4noc(C(C)C)n4)CC3C)nc21` (centres unmarked) [Ex-80], the concentration for a half-maximal effect (EC50) was 19.4 nM.
On to `COc1cncc(N2CCN(Cc3nc4c5cccc(OC)c5nc(N)n4n3)C(C)C2)c1OC` (centres unmarked) [Ex-116], for which the EC50 worked out at 3.03 nM.
In the case of `COc1cccc2c1nc(N)n1nc(CN3CCN(c4ccc5c(cnn5C)c4)CC3C)nc21` (centres unmarked) [Ex-130], the EC50 was found to be 0.898 nM.
`COc1cccc2c1nc(N)n1nc(CN3CCN(c4ccc(F)cc4)C4(CC4)C3)nc21` [Ex-195]: the EC50 was 41.6 nM.
Take `COc1cccc2c1nc(N)n1nc(CN3CCN(c4ccc(Cl)c(Cl)c4)CC3C)nc21` (centres unmarked) [Ex-127]: the half-maximal effective concentration (EC50) came to 3.08 nM.
With `CCn1cncc1CN1CCN(Cc2nc3c4cccc(OC)c4nc(N)n3n2)C(C)C1` (centres unmarked) [Ex-14], the EC50 was determined as 52.8 nM.
For `COc1cccc2c1nc(N)n1nc(CN3CCN(C)CC3c3ccccc3)nc21` (centres unmarked) [Ex-3], the EC50 came out at 190 nM.
For the molecule `COc1cccc2c1nc(N)n1nc(CN3CCN(Cc4cc(C)ccc4C)CC3C)nc21` (centres unmarked) [Ex-36], the half-maximal effective concentration (EC50) amounted to 18.1 nM.
Consider `COc1cccc2c1nc(N)n1nc(CN3CCN(c4cc(C#N)ccn4)CC3C)nc21` (centres unmarked) [Ex-114], for which the EC50 is 12.3 nM.
For `COc1cccc2c1nc(N)n1nc(CN3CCN(c4ccc(F)cn4)[C@@H](C)C3)nc21` [Ex-182], the EC50 is 10.2 nM.

In general, EC50 refers to the concentration giving half of the maximal effect.
